# Measurements as given in PMC12040169 (PLOS Biology, 2025).
# Experiment: in vitro
# Conditions: human, hela cells, % viability
SMILES,"viability at 28.5 h, 10 µM [%]","viability at 28.5 h, 10 µM (bulk resorufin, single well) [%]"
O=C(CN1CCC2(CC1)CN(CCO)c1ccccc12)Nc1ccc(F)c(Cl)c1 [CBK126761],94.6,–
OCCN1CC2(CCN(CCC(c3ccccc3)c3ccccc3)CC2)c2ccccc21 [CBK126765],88.9,–
COc1cc(CN2CCC3(CC2)CN(CC(N)=O)c2ccccc23)cc(OC)c1OC [CBK126774],93.1,–
NC(=O)CN1CC2(CCN(Cc3ccc(Cl)c(Cl)c3)CC2)c2ccccc21 [CBK126775],109,–
NC(=O)CN1CC2(CCN(CCS(=O)(=O)c3ccccc3)CC2)c2ccccc21 [CBK126786],103,–
NC(=O)CN1CC2(CCN(CCCn3c(=O)[nH]c4ccccc43)CC2)c2ccccc21 [CBK126787],89.6,–
NC(=O)CN1CC2(CCN(CC(=O)Nc3ccc(F)c(Cl)c3)CC2)c2ccccc21 [CBK126790],99.2,–
NC(=O)CN1CC2(CCN(CCCCC3NC(=O)NC3=O)CC2)c2ccccc21 (centres unmarked) [CBK126799],95.9,–
CSCCN1CCC2(CC1)CN(CC(N)=O)c1ccccc12 [CBK126801],92.9,–
COc1ccc(OC)c(-c2nc(Nc3ccccc3C)sc2CC(=O)O)c1 [CBK126811],101,–
CC(=O)Nc1sc2c(c1C(=O)O)CCc1ccccc1-2 [CBK126812],96.9,–
Cc1cc(C(=O)O)c(NC(=O)c2cccc(Cl)c2)s1 [CBK126813],100,–
O=C(CSCc1ccccc1)Nc1ccc(O)cc1C(=O)O [CBK126817],103,–
CCC(=O)Nc1ccc(O)cc1C(=O)O [CBK126818],92.8,–
C=CCn1c(SCC(=O)Nc2ccc(OC)cc2)nnc1-c1ccncc1 [CBK126824],88.9,–
CCOCCCNC(=O)/C(=C/c1cccnc1)NC(=O)c1ccccc1 [CBK126866],90.8,–
Cc1cc(N2CCOCC2)c2c(N)c(C)cc(C)c2n1 [CBK126908],83.8,–
CCCN1CCc2c(sc3nc(SCC(=O)OC)nc(N)c23)C1 [CBK126911],96.6,–
O=C(CSCc1ccc(Cl)cc1Cl)Nc1c[nH]c(=O)[nH]c1=O [CBK126912],90.4,–
CCc1c(C)nc2ccc(Br)cc2c1SCCC(=O)O [CBK126914],113,–
CCCCc1c(C)nc2c(OC)cccc2c1SCCC(=O)O [CBK126917],99.5,–

SMILES,"viability at 28.5 h, 10 µM [%]","viability at 28.5 h, 10 µM (bulk resorufin, single well) [%]"
O=C(O)CSc1cccc2cccnc12 [CBK126918],95,–
CN(C)CC(=O)N1CCN(c2cncc(-c3ccc(O)cc3)n2)CC1 [CBK126921T],97.2,–
CN(C)CCN(C)C(=O)C1CCN(c2cncc(-c3ccc(O)cc3)n2)CC1 [CBK126928T],88,–
COc1ccc(C(=O)NCCCN(C)C)cc1Nc1cncc(-c2ccc(O)cc2)n1 [CBK126938T],95,–
O=C(N1CCCC1)N1CCN(c2cncc(-c3ccc(O)cc3)n2)CC1 [CBK126947T],93.5,–
COCCN1CCN(c2cncc(-c3ccc(O)cc3)n2)CC1 [CBK126951T],93.6,–
O=C(Cn1nnc(-c2ccc(CN3CCOCC3)cc2)n1)Nc1ccc(Br)cc1 [CBK127364],94.1,–
CCn1c(SCC(=O)Nc2nc(C)c(C(=O)OC)s2)nc2c1c(=O)n(C)c(=O)n2C [CBK127470],101,–
Cn1c(=O)c2c(ncn2CC(=O)Nc2ccc(OCc3ccccc3)cc2)n(C)c1=O [CBK130478],89.8,–
O=C(Cc1ccc(Cl)c(Cl)c1)N1CCC2(CCN(C(=O)c3cc(F)c(F)cc3F)C2)C1 (centres unmarked) [CBK131386],95.9,–
N#Cc1cccc(C(=O)N2CCC3(CCN(C(=O)c4cc(F)c(F)cc4F)C3)C2)c1 (centres unmarked) [CBK131387],97.2,–
CSCCC(=O)N1CCC2(CCN(C(=O)c3cc(F)c(F)cc3F)C2)C1 (centres unmarked) [CBK131397],99.5,–
O=C(c1cncnc1)N1CCC2(CCN(C(=O)c3cc(F)c(F)cc3F)C2)C1 (centres unmarked) [CBK131405],94.8,–
O=C(c1ccc2[nH]c(=O)[nH]c2c1)N1CCC2(CCN(C(=O)c3cc(F)c(F)cc3F)C2)C1 (centres unmarked) [CBK131407],95.9,–
O=C(Cc1c[nH]c2ccccc12)N1CCC2(CCN(C(=O)CC3CCCCC3)C2)C1 (centres unmarked) [CBK131422],88.3,–
O=C(Cc1ccc(Cl)c(Cl)c1)N1CCC2(CCN(C(=O)Cc3c[nH]c4ccccc34)C2)C1 (centres unmarked) [CBK131426],106,–
O=C1NC(=O)C(CC(=O)N2CCC3(CCN(C(=O)Cc4c[nH]c5ccccc45)C3)C2)N1 (centres unmarked) [CBK131436],92.8,–
CSCCC(=O)N1CCC2(CCN(C(=O)Cc3c[nH]c4ccccc34)C2)C1 (centres unmarked) [CBK131442],95.3,–
Cc1ccc(S(=O)(=O)CC(=O)N2CCC3(CCN(C(=O)Cc4c[nH]c5ccccc45)C3)C2)cc1 (centres unmarked) [CBK131443],84,–
Cc1cn(CC(=O)N2CCC3(CCN(C(=O)Cc4c[nH]c5ccccc45)C3)C2)c(=O)[nH]c1=O (centres unmarked) [CBK131445],101,–
COc1cc(C(=O)N2CCC3(CCN(C(=O)Cc4c[nH]c5ccccc45)C3)C2)cc(OC)c1OC (centres unmarked) [CBK131448],86.7,–

SMILES,"viability at 28.5 h, 10 µM [%]","viability at 28.5 h, 10 µM (bulk resorufin, single well) [%]"
CN1CCN(S(=O)(=O)c2ccc(-c3cnc(N)c(-c4ccc(O)cc4)n3)cc2F)CC1 [CBK131449],93.9,–
Cc1cc(-c2cncc(-c3ccc(O)cc3)n2)ccc1S(=O)(=O)N1CCOCC1 [CBK131460],92.4,–
CCN1CC2(CCN(CC(N)=O)CC2)c2ccccc21 [CBK131485],107,–
CCN1CC2(CCN(Cc3ncc[nH]3)CC2)c2ccccc21 [CBK131486],89.1,–
CCN1CC2(CCN(CCCCC3NC(=O)NC3=O)CC2)c2ccccc21 (centres unmarked) [CBK131489],96,–
O=C(CO)N1CC2(CCN(Cc3ccc(Cl)c(Cl)c3)CC2)c2ccccc21 [CBK131495],89.5,–
O=C(CO)N1CC2(CCN(Cc3ccc4ccccc4c3)CC2)c2ccccc21 [CBK131501],88.7,–
O=C(CO)N1CC2(CCN(CCO)CC2)c2ccccc21 [CBK131507],79.7,–
O=C(CO)N1CC2(CCN(CCC(c3ccccc3)c3ccccc3)CC2)c2ccccc21 [CBK131513],106,–
OCCN1CC2(CCN(Cc3ccc4ccccc4c3)CC2)c2ccccc21 [CBK131529],92.6,–
O=C(CC1CC1)N1CCCC2(CCN(C(=O)c3cc(F)c(F)cc3F)C2)C1 (centres unmarked) [CBK131531],96.7,–
O=C(c1cc(F)c(F)cc1F)N1CCC2(CCCN(C(=O)c3cccc4[nH]ccc34)C2)C1 (centres unmarked) [CBK131544],97.3,–
O=C1NC(=O)C(CC(=O)N2CCCC3(CCN(C(=O)c4cc(F)c(F)cc4F)C3)C2)N1 (centres unmarked) [CBK131550],96.2,–
Cc1cn(CC(=O)N2CCCC3(CCN(C(=O)c4cc(F)c(F)cc4F)C3)C2)c(=O)[nH]c1=O (centres unmarked) [CBK131561],101,–
COc1cc(C(=O)N2CCCC3(CCN(C(=O)c4cc(F)c(F)cc4F)C3)C2)cc(OC)c1OC (centres unmarked) [CBK131563],106,–
O=C(Cc1c[nH]c2ccccc12)N1CCC2(CCCN(C(=O)c3cccc(C(F)(F)F)c3)C2)C1 (centres unmarked) [CBK131578],97.2,–
O=C(Cc1c[nH]c2ccccc12)N1CCC2(CCCN(C(=O)c3ccc(OC(F)(F)F)cc3)C2)C1 (centres unmarked) [CBK131579],97.8,–
O=C(Cc1c[nH]c2ccccc12)N1CCC2(CCCN(C(=O)c3cccnc3)C2)C1 (centres unmarked) [CBK131604],103,–
O=C(Cc1ccc(Cl)c(Cl)c1)N1CCCC2(CCN(C(=O)c3ccoc3)C2)C1 (centres unmarked) [CBK131619],87.4,–
O=C(/C=C/c1ccc2c(c1)OCO2)N1CCCC2(CCN(C(=O)c3ccoc3)C2)C1 (centres unmarked) [CBK131622],92.3,–
O=C(c1cc[nH]c1)N1CCCC2(CCN(C(=O)c3ccoc3)C2)C1 (centres unmarked) [CBK131629],105,–

SMILES,"viability at 28.5 h, 10 µM [%]","viability at 28.5 h, 10 µM (bulk resorufin, single well) [%]"
COc1cc(C(=O)N2CCCC3(CCN(C(=O)c4ccoc4)C3)C2)cc(OC)c1OC (centres unmarked) [CBK131637],114,–
COc1ccc(C(=O)N2CCC3(CCCN(C(=O)c4ccco4)C3)C2)cc1OC (centres unmarked) [CBK131647],98.2,–
COc1ccc(C(=O)N2CCC3(CCCN(C(=O)c4cscn4)C3)C2)cc1OC (centres unmarked) [CBK131659],92,–
COc1ccc(C(=O)N2CCC3(CCCN(C(=O)CCSC)C3)C2)cc1OC (centres unmarked) [CBK131661],111,–
COc1ccc(C(=O)N2CCC3(CCCN(C(=O)c4ccc5occc5c4)C3)C2)cc1OC (centres unmarked) [CBK131665],97.6,–
COc1ccc(C(=O)N2CCC3(CCCN(C(=O)c4cc(OC)c(OC)c(OC)c4)C3)C2)cc1OC (centres unmarked) [CBK131667],86.7,–
COc1ccc(C(=O)N2CCC3(CCCN(C(=O)c4cccnc4)C3)C2)cc1OC (centres unmarked) [CBK131668],97.8,–
COc1ccc(C(=O)N2CCC3(CCCN(C(=O)c4c(F)cccc4F)C3)C2)cc1OC (centres unmarked) [CBK131669],94.1,–
CCOC(=O)N1CCC2(CC1)OCc1cc(C#N)ccc1O2 [CBK131678],–,87
O=C(O)CSc1nnc(-c2ccco2)n1-c1ccccc1 [CBK131685],85.9,–
O=C(CCCOc1ccc(Cl)cc1Cl)Nc1ccc(O)cc1C(=O)O [CBK131688],104,–
O=C(O)COc1ccc(NC(=O)CSCc2ccc(Cl)cc2Cl)cc1 [CBK131700],89.2,–
Cc1cc(Cl)ccc1OCC(=O)Nc1ccc(O)cc1C(=O)O [CBK131706],86,–
COc1ccc(Nc2nc(-c3ccccc3)c(C)s2)c(OC)c1 [CBK131709],106,–
COC(=O)c1ccccc1NC(=O)CSCc1ccc(Cl)cc1Cl [CBK131712],86.2,–
O=C(c1ccc(OC(F)(F)F)cc1)N1CCC2(CCN(C(=O)c3ccoc3)C2)C1 (centres unmarked) [CBK131735],92.8,–
COc1ccc(C(=O)N2CCC3(CCN(C(=O)CCSC)C3)C2)cc1OC (centres unmarked) [CBK131786],105,–
COc1ccc(C(=O)N2CCC3(CCN(C(=O)c4ccc5[nH]c(=O)[nH]c5c4)C3)C2)cc1OC (centres unmarked) [CBK131793],100,–
COc1ccc(OC(=O)Cc2ccccc2)cc1 [CBK131826],–,117
COc1cc(-c2cc(-c3ccccc3)nc(SCC(=O)O)c2C#N)cc(OC)c1OC [CBK131867],99.3,–
